From patent US20250188062A1, “TRIAZINE COMPOUNDS AND METHODS OF MAKING AND USING THE SAME” (Athos Therapeutics, Inc., priority 2021, published 2025)

What was measured:
THP-1 human monocytes = experiment: Cellular assay for anti-inflammatory properties: cytokine ELISA multiplex in LPS-stimulated PMA-differentiated THP-1 macrophages; type: cell-based; conditions: 1 μM, 4 hours before 100 ng/mL LPS for 4 or 24 hours; cytokine protein in media vs LPS+PMA only
Experimental: The anti-inflammatory properties of five JMJD3 inhibitors (99, 92, 93, 98, and 95, in no particularly order) were evaluated in an immune cellular assay targeting key pro-inflammatory cytokines involved in the pathogenesis of multiple autoimmune disease.
Specifically, THP-1 human monocytes were grown in 6-well plates (RPMI 1640+10% FBS+1% P/S). After washing with PBS the THP-1 cells were differentiated into macrophages using 20 nM of phorbol 12-myristate 13-acetate (PMA) for 24 hrs. 99, 92, 93, 98, and 95) (1 μM) were added into the macrophages, which are incubated for 4 hours before the addition of 100 ng/mL lipopolysaccharide (LPS) for either 4 or 24 hours. Next, the macrophages are collected via centrifugation at 1.2K rpm for 5 min and use their media to evaluate cytokine protein levels by using the Bio-rad Cytokine ELISA multiplex assay (cat. No M5000031YV). The supernatants from macrophages treated only with only LPS+PMA were collected and used as negative controls.

Naïve CD4+ T human cells = experiment: Cellular assay for FoxP3 induction activity (qPCR of FoxP3 mRNA); type: cell-based; conditions: CD4+ T cells activated with anti-CD3, IL-2 and TGF-β for 5 days; FoxP3 mRNA by qPCR on day 5; FIG. 3
Experimental: CD4+CD25+FOXP3+ regulatory T cells (Tregs) suppress pro-inflammatory cells and signals and are critical mediators of tolerance, inhibiting excessive inflammation and autoimmunity. Also, treatment of CD4+ T cells with interleukin 2 (IL-2) and transforming growth factor beta (TGF-β) signaling are important for FOXP3 induction and Treg formation.
Naïve CD4+ T human cells (cat. no 2W-200, Lonza) were cultured and activated with artificial antigen-presenting cells and soluble anti-CD3 (100 ng/ml) in the presence of IL-2 (300 U/ml) and TGF-β (10 ng/ml) for 5 days. On day 3, cells were transfected with an anti-sense RNA against JMJD3 (cat. No 1299001, Thermo) using Lipofectamine 2000 (cat. No 11668027, Thermo). On day 5, RNA was extracted and qPCR analysis was performed to evaluate FoxP3 mRNA levels by using the following primers: F: 5′-TCCACAACATGCGACCCCCTTTCA-3′ and R: 5′-ACAGCCCCCTTCTCGCTCTCCA-3′ having a 217 bp product. All JMJD3 inhibitors (99, 92, 93, 98, and 95) in CD4+ T cells induced 7-fold FoxP3 expression levels, thus moving towards differentiation and formation of Tregs. […] Thus, genetic or pharmacological inhibition of […] will result into FoxP3 activation and induction of Treg formation. Based on this evidence, JMJD3 inhibitors (99, 92, 93, 98, and 95)) could be used in autoimmune diseases where T-regulatory cells have therapeutic potential. There is increasing evidence and literature derived from human clinical studies (Arellano B et al., Regulatory T Cell-based Therapies for Autoimmunity, Discov Med, 22:73-80, 2016).

JMJD3 = JMJD3 (Homo sapiens, UniProt O15054); experiment: JMJD3 binding assay (Kd, affinity beads, qPCR readout); conditions: 11-point 3-fold dilution series, 0.9% DMSO, room temperature 1 hour; read-out: JMJD3 Affinity (binding constant, Kd)
Experimental: Test compounds were prepared as 111X stocks in 100% DMSO. Kd values are determined using an 11-point 3-fold compound dilution series with three DMSO control points. All compounds for Kd measurements were distributed by acoustic transfer (non-contact dispensing) in 100% DMSO. The compounds were then diluted directly into the assays such that the final concentration of DMSO was 0.9%. All reactions were performed in polypropylene 384-well plate. Each was a final volume of 0.02 ml. The assay plates were incubated at room temperature with shaking for 1 hour and the affinity beads were washed with wash buffer (lx PBS, 0.05% Tween 20). The beads were then re-suspended in elution buffer (lx PBS, 0.05% Tween 20, 0.5 μM non-biotinylated affinity ligand) and incubated at room temperature with shaking for 30 minutes. The kinase concentration in the eluates was measured by qPCR. Binding constants are calculated with a standard dose-response curve using the Hill equation:
The Hill Slope was set to −1. Curves were fitted using a non-linear least square fit with the Levenberg-Marquardt algorithm. The binding data is summarized in Table 2 where A is less than 100 nM, B is 100 to 500 nM, and C is greater than 500 nM.

[1] = Stability under acidic LCMS condition; type: physicochemical; conditions: 0.1% formic acid mobile phase; hydrolyzed —OH product found
Experimental: All reactions were carried out under an atmosphere of argon. Reagents and solvents were used from commercial sources without additional purification. Hydrogenation reactions were run under a balloon. Microwave reactions were performed using a CEM Discover SP microwave synthesizer. Sample purification was conducted on a Buchi Pureflash with ELSD purification system using pre-packed commercially available silica gel columns. Thin layer chromatography (TLC) was performed on aluminium plates using Merck Kiesegel 60 F254 (230-400 mesh) fluorescent treated silica which were visualized under ultraviolet light (254 nm), or by staining with potassium permanganate or ninhydrin solution as appropriate. All Nuclear Magnetic Resonance (NMR) spectra were acquired on a Bruker Avance III HD 400 MHz NMR spectrometer; chemical shifts are reported in ppm (δ). […] All compounds purity was analyzed on Agilent 1260 Infinity II Lab LC Series HPLC (1260 Quatpum, 1260 vial autosampler, ICC column oven, 1260 DAD WR detector). […] All compounds that were evaluated in biological assay had >90% and animal study had >95% purity. […]

JMJD3, sequence (O15054 whole entry, species assumed): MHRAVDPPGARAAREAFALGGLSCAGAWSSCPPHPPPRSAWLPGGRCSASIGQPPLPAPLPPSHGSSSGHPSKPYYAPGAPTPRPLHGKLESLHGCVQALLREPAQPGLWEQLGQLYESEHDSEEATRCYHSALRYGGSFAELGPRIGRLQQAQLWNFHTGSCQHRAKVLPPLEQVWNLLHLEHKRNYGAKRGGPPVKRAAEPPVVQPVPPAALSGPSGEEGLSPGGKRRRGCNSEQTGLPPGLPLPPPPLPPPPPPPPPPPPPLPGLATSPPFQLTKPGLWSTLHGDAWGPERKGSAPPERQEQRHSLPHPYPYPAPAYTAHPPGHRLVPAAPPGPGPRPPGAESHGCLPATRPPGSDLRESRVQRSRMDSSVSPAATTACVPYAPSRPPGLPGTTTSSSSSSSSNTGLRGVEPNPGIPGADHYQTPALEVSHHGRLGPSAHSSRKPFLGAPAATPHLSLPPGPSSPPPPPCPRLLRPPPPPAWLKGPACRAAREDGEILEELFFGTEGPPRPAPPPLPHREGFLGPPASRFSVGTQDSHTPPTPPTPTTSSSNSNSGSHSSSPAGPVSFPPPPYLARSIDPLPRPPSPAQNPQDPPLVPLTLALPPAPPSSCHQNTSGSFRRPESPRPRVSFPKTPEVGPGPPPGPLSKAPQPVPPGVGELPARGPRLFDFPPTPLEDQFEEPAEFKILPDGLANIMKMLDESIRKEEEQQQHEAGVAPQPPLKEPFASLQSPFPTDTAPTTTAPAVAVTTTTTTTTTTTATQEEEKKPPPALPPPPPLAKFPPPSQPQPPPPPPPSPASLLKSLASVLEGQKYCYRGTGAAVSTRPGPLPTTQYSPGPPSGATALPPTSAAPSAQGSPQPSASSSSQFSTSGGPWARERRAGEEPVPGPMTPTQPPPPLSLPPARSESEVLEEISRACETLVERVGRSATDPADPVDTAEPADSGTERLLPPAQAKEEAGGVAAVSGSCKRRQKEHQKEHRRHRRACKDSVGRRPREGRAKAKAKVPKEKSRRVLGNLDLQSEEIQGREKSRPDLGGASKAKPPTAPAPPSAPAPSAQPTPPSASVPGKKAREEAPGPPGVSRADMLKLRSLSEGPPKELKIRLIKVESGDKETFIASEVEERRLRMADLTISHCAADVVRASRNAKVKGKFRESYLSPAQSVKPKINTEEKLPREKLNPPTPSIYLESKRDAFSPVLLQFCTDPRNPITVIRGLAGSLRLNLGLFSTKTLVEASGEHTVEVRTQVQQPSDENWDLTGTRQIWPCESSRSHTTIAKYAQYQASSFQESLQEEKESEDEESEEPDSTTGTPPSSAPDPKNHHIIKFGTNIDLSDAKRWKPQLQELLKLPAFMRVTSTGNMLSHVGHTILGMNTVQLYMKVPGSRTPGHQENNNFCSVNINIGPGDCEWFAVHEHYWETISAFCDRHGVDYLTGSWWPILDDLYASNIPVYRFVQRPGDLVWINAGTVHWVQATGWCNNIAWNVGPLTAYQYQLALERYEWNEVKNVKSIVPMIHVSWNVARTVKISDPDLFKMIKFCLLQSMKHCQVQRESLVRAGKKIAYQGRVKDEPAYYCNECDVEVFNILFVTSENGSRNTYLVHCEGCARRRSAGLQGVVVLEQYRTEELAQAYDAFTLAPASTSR

Question: For `c1ccc2c(c1)ccn2-c1nc(OC2CCCC2)nc(-n2cccn2)n1` [Compound 95, 1-(4-(Cyclopentyloxy)-6-(1H-pyrazol-1-yl)-1,3,5-triazin-2-yl)-1H-indole], which “suppression of TNF-alpha (TNFA)” value (THP-1 human monocytes) is on record?
Answer: suppression

Question: What about the “suppression of interleukin 1beta (IL1B)” value (THP-1 human monocytes) of the same molecule?
Answer: suppression

Question: What about the “suppression of interleukin 5 (IL5)” value (THP-1 human monocytes) of the same molecule?
Answer: suppression

Question: What about the “suppression of interleukin 6 (IL6)” value (THP-1 human monocytes) of the same molecule?
Answer: suppression

Question: What about the “suppression of interleukin 8 (IL8)” value (THP-1 human monocytes) of the same molecule?
Answer: suppression

Question: What about the “suppression of interleukin 13 (IL13)” value (THP-1 human monocytes) of the same molecule?
Answer: suppression

Question: And the “FoxP3 expression levels (induction)” value (Naïve CD4+ T human cells)?
Answer: 7 fold

Question: What about the Kd (JMJD3) of the same molecule?
Answer: < 100 nM

Question: And the “stability under acidic LCMS condition” value [1]?
Answer: unstable
